Experimental findings from patent US20240390395A1, “APPLICATION OF ION CHANNEL BLOCKER IN TREATMENT AND/OR PREVENTION OF HEPATIC FIBROSIS” (Affiliated Hospital of Zunyi Medical University, priority 2023, published 2024) are described below.

Data set [1] deals with CCl4-induced hepatic fibrosis mice. The data set can be described thus: CCl4-induced mouse hepatic fibrosis, HE staining and Sirius-red staining of hepatic tissue. Format: in vivo. The conditions noted are these: gliclazide solution 500 μM, C57 mice. On the procedure: Experimental materials include 60 healthy male C57 mice (20-25 g per mouse, purchased from Chongqing […] Biotechnology Co., Ltd.), gavage needles, 1 milliliter (mL) syringes, CCI4 solution, olive oil, and gliclazide solution. An experimental method is as follows. The CCl4 solution is prepared by dissolving CCl4 in the olive oil (a volume ratio of CCl4 to olive oil is 1:4), and the prepared CCl4 solution should be used immediately. The gliclazide solution is prepared by dissolving gliclazide in physiological saline, the concentration of the gliclazide solution is 500 micromoles per liter (μM), and the prepared gliclazide solution should be used immediately. The mice are randomly divided into four groups including a, b, c, and d. • a. Normal control group. • b. Model group: mice are intragastrically administered with the CCl4 solution, 0.1 mL/20 g (i.e., 0.1. mL CC14 per 20 g of body weight of mice), twice a week for 8 weeks. • c. CCl4+gliclazide group: mice are intragastrically administered with the CCl4 solution alone, 0.1 mL/20 g, twice a week for 2 weeks; then the mice are given with the gliclazide solution and the CCl4 solution together for 6 weeks; and an administration method of the gliclazide solution is 0.2mL/20g and intraperitoneal injection once a day. • d. Gliclazide group: the gliclazide solution is intraperitoneally injected into mice for 8 weeks; and an administration method of the gliclazide solution is 0.2 mL/20 g and intraperitoneal injection once a day. The mice are sacrificed at the 2nd, 4th, 6th and 8th weeks of modeling respectively, and one mouse in each group is sacrificed each time. Hepatic samples obtained from the sacrificed mice are taken out and stored in liquid nitrogen at -80 Celsius degrees (° C.), and the other hepatic samples are fixed in paraformaldehyde with a concentration of 4% for 24 hours, then the other hepatic samples are embedding in paraffin. The degrees of severity of hepatic fibrosis are observed by appearance, Sirius-red staining, and hematoxylin-eosin (HE) staining. […]

Data set [2] deals with α-SMA. The data set can be described thus: α-SMA in hepatic tissues detected by immunohistochemistry. Format: in vivo, mouse. The conditions noted are these: CCl4-induced hepatic fibrosis mice; gliclazide solution 500 μM intraperitoneal. On the procedure: The mice are randomly divided into four groups including a, b, c, and d. • a. Normal control group. • b. Model group: mice are intragastrically administered with the CCl4 solution, 0.1 mL/20 g (i.e., 0.1. mL CC14 per 20 g of body weight of mice), twice a week for 8 weeks. • c. CCl4+gliclazide group: mice are intragastrically administered with the CCl4 solution alone, 0.1 mL/20 g, twice a week for 2 weeks; then the mice are given with the gliclazide solution and the CCl4 solution together for 6 weeks; and an administration method of the gliclazide solution is 0.2mL/20g and intraperitoneal injection once a day. • d. Gliclazide group: the gliclazide solution is intraperitoneally injected into mice for 8 weeks; and an administration method of the gliclazide solution is 0.2 mL/20 g and intraperitoneal injection once a day. […] An experimental method is as follows.

Data set [3] relates to HSCs-T6. Nature of the data set: HSCs proliferation under co-culture of gliclazide and TGF-β1 detected by CCK8. Format: cell-based, rat. The conditions noted are these: TGF-β1 10 ng/mL, 48 hours, P<0.05. On the procedure:
Experimental materials include HSCs-T6, a Dulbecco's modified eagle medium (DMEM) complete culture medium, a 96-well plate, a counting chamber (also referred to as hemocytometer), CCK-8 working solution, and the like. An experimental method is as follows. First, HSCs-T6 are cultured in the DMEM culture medium containing 10% fetal bovine serum, 1% double antibody (penicillin streptomycin solution) and 1% nonessential amino acid (NEAA), and the culture conditions include 37° C. and 5% CO2. The cells are digested by using trypsin for passage cultivation after the cells are converged to 80% to 90%. Next, the cells are inoculated in the plate, specifically, a density of […] cell suspension with a volume of 100 μL is added into each well of the 96-well plate, each group has 6 replicate wells. This experiment is divided into a control group and a TGF-β1 group, TGF-β1+gliclazide (the gliclazide used in this group has different concentrations of 50μM, 100μM, 150μM, and 200μM) medicament groups. After cell attachment, except for the control group and the TGF-β1 group, the other groups are added with gliclazide with the above concentrations respectively, and after 3 hours, TGF-β1 (10 ng/mL) is added to corresponding groups for stimulating HSCs of […]. After 48 hours of incubation, 100 μL mixed solution of “10% CCK8+90% culture medium” is added into each well. Then the incubation is performed at 37° C. for 1˜4 h, a wavelength is set at 450 nm, and an automatic enzyme analyzer is used to read and record absorbance values at the corresponding wavelength. The effects of gliclazide on cell proliferation are detected by CCK8, and the optimal action time and optimal medicament concentration are screened.

The subject of data set [4] is LC3. Nature of the data set: LC3 in HSCs detected by Western blotting. As to conditions: HSCs-T6; gliclazide 100 βM; TGF-β1 10 ng/ml; 48 hours. Format: cell-based, rat. On the procedure: (§1) Experimental materials include HSCs-T6, a DMEM complete culture medium, cell culture dishes, a cell lysis solution, a PBS solution, a BCA protein assay kit, non-fat powdered milk, primary antibodies and corresponding secondary antibodies related to α-SMA, LC3, and p62. Experimental method is as follows. First, this experiment is divided into a normal group, a TGF-β1 group, a gliclazide +TGF-β1 group, and a gliclazide group. The concentration of the TGF-β1 is 10 ng/ml, and the concentration of the gliclazide is 100 βM. The the HSCs-T6 is cultured by using the cell culture dish, and inoculated, administrated, added with TGF-β1 according to the conditions described in the embodiment 4. After 48 hours, the incubated cells are rinsed by the precooled PBS solution for 3-4 times, and residual PBS liquid is absorbed with a filter paper, 50 μL radioimmune precipitation assay (RIPA) buffer and 0.5 μL (100:1) phenylmethanesulfonyl fluoride (PMSF) with a concentration of 100millimoles per liter (mmol/L) are added in a 50 mL culture flask and placed on ice for 30 minutes. Then, the protein is scraped by a cell scraper from the culture flask and suctioned out into the EP tubes, and centrifuged at 12000 rpm for 30 minutes at 4° C. […] The OD value at 560 nm is measured by using ELISA on the machine to calculate the concentration of the protein. […]
Background: A western blot detects proteins with antibodies after separation by electrophoresis.

Data set [5] has as its system α-SMA. Nature of the data set: α-SMA in HSCs added with autophagy agonist rapamycin, Western blotting. As to conditions: HSCs-T6; gliclazide 100 βM; TGF-β1 10 ng/ml; 48 hours; P<0.05. Format: cell-based, rat. On the procedure: Experimental materials include HSCs-T6, rapamycin, a DMEM complete culture medium, cell culture dishes, a cell lysis solution, a PBS solution, a BCA protein assay kit, non-fat powdered milk, primary antibodies and corresponding secondary antibodies related to α-SMA, LC3, and p62.
Experimental method is as follows. First, this experiment is divided into a normal group, a TGF-β1 group, a gliclazide +TGF-β1 group, and a gliclazide +TGF-β1 +rapamycin group. The concentration of the TGF-β1 is 10 ng/ml, the concentration of the gliclazide is 100 βM, and the concentration of the rapamycin is 100 nanomoles per liter (nM). The TGF-β1 is added at the same time as that in the embodiment 5, and rapamycin and gliclazide are added simultaneously. After 48 hours of incubation, the above groups are detected by the BCA protein assay kit and Western blotting.

Data set [6] deals with LC3. The data set can be described thus: LC3 in hepatic tissues detected by Western blotting. Format: in vivo, mouse. The conditions noted are these: CCl4-induced hepatic fibrosis mice; gliclazide solution 500 μM intraperitoneal. On the procedure:
(§2) The mice are randomly divided into four groups including a, b, c, and d. • a. Normal control group. • b. Model group: mice are intragastrically administered with the CCl4 solution, 0.1 mL/20 g (i.e., 0.1. mL CC14 per 20 g of body weight of mice), twice a week for 8 weeks. • c. CCl4+gliclazide group: mice are intragastrically administered with the CCl4 solution alone, 0.1 mL/20 g, twice a week for 2 weeks; then the mice are given with the gliclazide solution and the CCl4 solution together for 6 weeks; and an administration method of the gliclazide solution is 0.2mL/20g and intraperitoneal injection once a day. • d. Gliclazide group: the gliclazide solution is intraperitoneally injected into mice for 8 weeks; and an administration method of the gliclazide solution is 0.2 mL/20 g and intraperitoneal injection once a day. Experimental materials include mouse hepatic tissues, a tweezer, a scissor, steel balls with a size of 2 millimeters (mm), a magnet, a cell lysis solution, a PBS solution, a bicinchoninic acid (BCA) protein assay kit, non-fat powdered milk, primary antibodies and corresponding secondary antibodies related to α-SMA, LC3, and p62. An experimental method is as follows. […] The optical density (OD) value at 560 nanometers (nm) is measured by using an enzyme-linked immunosorbent assay (ELISA) on the machine to calculate the concentration of the protein. […]

Data set [7] relates to p62. The data set can be described thus: p62 in HSCs detected by Western blotting. Format: cell-based, rat. The conditions noted are these: HSCs-T6; gliclazide 100 βM; TGF-β1 10 ng/ml; 48 hours. On the procedure:
as §1

Data set [8] relates to p62. Nature of the data set: p62 in hepatic tissues detected by Western blotting. The format is in vivo, mouse. The conditions noted are these: CCl4-induced hepatic fibrosis mice; gliclazide solution 500 μM intraperitoneal. On the procedure: as §2
Data set [9] deals with α-SMA. The data set can be described thus: α-SMA in HSCs detected by Western blotting. As to conditions: HSCs-T6; gliclazide 100 βM; TGF-β1 10 ng/ml; 48 hours. Format: cell-based, rat. On the procedure:
as §1

For data set [10], the system named is α-SMA. The data set can be described thus: α-SMA in hepatic tissues detected by Western blotting. As to conditions: CCl4-induced hepatic fibrosis mice; gliclazide solution 500 μM intraperitoneal. The format is in vivo, mouse. On the procedure:
as §2

Where [11] appears, read: CCl4+gliclazide group vs model group, 0.2 mL/20 g intraperitoneal once a day for 6 weeks.

With `Cc1ccc(S(=O)(=O)NC(=O)NN2CC3CCCC3C2)cc1` (centres unmarked) [gliclazide], the “degree of hepatic fibrosis (HE staining)” value in [1] (setting [11]) is listed as “significantly decreased”. Further, the “degree of hepatic tissue injury (HE staining)” value in data set [1] (setting [11]) is on record as “significantly decreased”. Also, in data set [1] (gliclazide group without CCl4, 0.2 mL/20 g intraperitoneal once a day for 8 weeks), the “collagen fibers in hepatic tissue (Sirius-red staining)” value is recorded as “no obvious collagen fibers are observed”. In addition, in data set [2], the “expression of α-SMA in hepatic tissues (immunohistochemistry)” value is “down-regulate”. Besides, the “proliferation of HSC-T6 induced by TGF-β1 (CCK8)” value in data set [3] (gliclazide 100 μM), in data set [3] (gliclazide 150 μM) and in [3] (gliclazide 200 μM) was “inhibits the proliferation” each time. In data set [4], the “expression of LC3 in HSCs (Western blotting)” value is reported as “significantly decreases”. Further, the “protein expression level of α-SMA, gliclazide +TGF-β1 group vs TGF-β1 group” value in [5] is reported as “significantly lower”. In addition, the “expression of LC3 in hepatic tissue (Western blotting)” value in data set [6] is “significantly decreases”. In [7], the “expression level of autophagy substrate p62 in HSCs (Western blotting)” value is “significantly increases”. Also, the “expression level of autophagy substrate p62 in hepatic tissue (Western blotting)” value in [8] is on record as “significantly increases”. For the same molecule, the “expression of α-SMA in HSCs (Western blotting)” value in data set [9] was “significantly decreases”. In addition, in data set [10], the “expression of α-SMA in hepatic tissue (Western blotting)” value is on record as “significantly decreases”.
